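Exposure lasted 48 hours, with cells grown in 96-well plates and compounds tested at five concentrations. The concentration for 50% growth inhibition is given as GI50. TGI is the concentration that stops growth completely.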
Legend:
Test in all cases: DTP human tumour cell line panel, 48 h
[1] = tested on: 786-0 renal
[2] = tested on: HOP-92 NSCLC
[3] = tested on: K-562 leukemia
[4] = tested on: OVCAR-5 ovarian
[5] = tested on: OVCAR-8 ovarian
[6] = tested on: SK-MEL-2 melanoma
[7] = tested on: TK-10 renal
[8] = tested on: UACC-62 melanoma
[9] = tested on: UO-31 renal
[10] = tested on: T-47D breast

Structure (SMILES)	TGI [1] [µM]	TGI [2] [µM]	TGI [3] [µM]	TGI [4] [µM]	TGI [5] [µM]	TGI [6] [µM]	TGI [7] [µM]	TGI [8] [µM]	TGI [9] [µM]	TGI [10] [µM]	GI50 [1] [µM]	GI50 [4] [µM]	GI50 [7] [µM]	GI50 [8] [µM]	GI50 [9] [µM]	GI50 [2] [µM]	GI50 [5] [µM]	GI50 [6] [µM]	GI50 [10] [µM]	GI50 [3] [µM]
O=C1C2c3[nH]c4ccccc4c3C3CCCCCC3C2C(=O)N1c1ccccc1 (stereo not drawn)	> 100	74.7	> 100	> 100	34	67.2	> 100	> 100	99.4											
O=C(N/C(=C\c1ccccc1Cl)c1nc2ccccc2[nH]1)c1ccccc1	> 100	34.1	> 100	> 100	> 100	51.8	> 100	> 100	44.8											
O=C(/C=C/C(Cl)(Cl)Cl)Nc1ccc(Cl)cc1	2.96	4.08		27.5	> 77.6	18.1	5.73	21.2	1.91	7.84										
CN(NC1OC(CO)C(O)C(O)C1O)c1ccccc1 (stereo not drawn)	> 100	> 100	> 100	> 100	> 100		> 100	> 100												
COc1ccc(S(=O)(=O)N[C@H](C(=O)O)c2ccccc2)cc1	> 100		> 100	> 100	> 100	> 100	> 100	> 100	> 100											
COC1OC(CBr)C(OC(=O)c2ccccc2)C(OS(=O)(=O)c2ccc(C)cc2)C1Br (stereo not drawn)	> 100	> 100	> 100		> 100	> 100	> 100		> 100											
Cc1cc(=O)n(-c2c(C)cccc2Cl)c(/C=C(\O)c2ccncc2)n1	> 100	> 100	> 100	> 100	> 100	> 100	> 100	> 100	> 100											
c1ccc(-c2n(Cc3ccc4ccccc4c3)cc[n+]2Cc2ccc3ccccc3c2)cc1	3.02			2.75			2.83	1.73	2.87		1.46	1.36	1.34	0.447	1.47					
N#Cc1ccccc1C#C/C=C\C#CC#C/C=C\C#Cc1ccccc1C#N	42.1	> 100		26.5	> 100	62.7	83	40.6	> 100	46.5	16.6	11.4	23.9	14.7	21.8	10.4	47.6	22.1	10.3	
COc1cc2c(cc1O)CN1CCC23C=C[C@@H](O)CC13 (stereo partly drawn)	> 100	> 100	> 100	> 100	> 100	> 100	> 100	> 100	> 100											
COc1ccccc1/C=C/C1=C(C)CCC(c2ccccc2OC)C1C (stereo not drawn)	2.51	> 100		> 68.2		> 100	45.1	40.3	> 100	> 100	0.196	0.403	0.227	0.0684	0.371	0.632	0.137	0.224	4.36	
COc1cccc2nc3ccccc3nc12	> 100	78.1	> 100	> 100	69.1		> 100	> 100	72.3	> 100										
Cc1cc(C)c2c(c1)N[S@@](=O)S2	28.9	> 100	67.9	81.9	33.2	82.9	80.3	37.9	39.4											
C=C1C(=O)O[C@H]2[C@H]1CC/C(Cn1cc(-c3cccc(Cl)c3)nn1)=C\CC[C@@]1(C)O[C@@H]21	1.87	0.842	2.44	2.78	2.85	3.28	2.15	2.08	2.31		0.506	1.21	0.992	0.625	1.08	0.257	1.31	1.66		0.405
CCOC(=O)c1c(NC(=O)c2ccccc2)sc2c3c(ccc12)OCN(C)C3	3.4	2.68	5.11	3.16		4.02	3.54	3.27	2.74	3.78	1.79	1.71	1.81	1.7	1.36	1.2		2.07	1.76	0.694
COC(=O)C1(C)CC2C(C)(CCC3(C)C4=CC=C5C(=CC(=O)C(O)=C5C)C4(C)CCC23C)CC1O (stereo not drawn)	0.477	2.82		3.32	2.38	2.94	1.59	2.32	3.19											
CCCCCCCCCC(CCCC(O)CC(=O)O)OC1OC(COC2OC(C)C(OC(C)=O)C(O)C2O)C(O)C(O)C1OC1OC(CO)C(O)C(O)C1OC1OC(C)C(OC(=O)CC(C)C)C(O)C1O (stereo not drawn)	> 35		> 35	> 35	> 35		> 35	> 35	> 35	> 35	> 35	> 35	> 35	> 35	> 35		> 35		> 35	> 35
O=C1c2cccnc2C(=O)c2c1c(C(=O)NCCn1ccnc1)c1ccccn21	37.6	31.7	> 100	24.2	8.06	8.3		4.4	41.6	11.6	5.47	4.1		1.84	4.07	9.28	2.48	2.82	3.24	4.39

Source: PubChem BioAssay (NCI)
